Measured values reported in ChEMBL document CHEMBL3045111, “Synthesis and herbicidal activities of novel 3-(substituted benzyloxy or phenoxy)-6-methyl-4-(3-trifluoromethylphenyl)pyridazine derivatives” (2012).
Activity calls are given as the source filed them. The calls are words filed in the database; no cut-off is given here.

What was measured:
Digitaria [1] = experiment: Pre-emergence herbicidal activity against Digitaria adscendens under greenhouse condition at 750 g /ha measured after 24 days by spray method; format: functional; details: in Digitaria adscendens, 576 h, read-out: GI
Echinochloa crus-galli [2] = experiment: Post-emergence herbicidal activity against one-leaf stage of Echinochloa crus-galli (barnyard grass) under greenhouse condition at 750 g /ha measured after 24 days by spray method; format: functional; details: 576 h, read-out: GI
[3] = system: Brassica rapa subsp. oleifera; experiment: Post-emergence herbicidal activity against one-leaf stage Brassica rapa subsp. oleifera under greenhouse condition at 300 g /ha measured after 24 days by spray method; format: functional; details: 576 h, read-out: GI
[4] = system: Brassica rapa subsp. oleifera; experiment: Post-emergence herbicidal activity against one-leaf stage Brassica rapa subsp. oleifera under greenhouse condition assessed as complete bleaching of leaves at 300 g /ha measured after 24 days by spray method; format: functional, organism-based
[5] = system: Brassica rapa subsp. oleifera; experiment: Post-emergence herbicidal activity against one-leaf stage Brassica rapa subsp. oleifera under greenhouse condition assessed as complete bleaching of leaves at 150 g /ha measured after 24 days by spray method; format: functional, organism-based
[6] = system: Brassica rapa subsp. oleifera; experiment: Post-emergence herbicidal activity against one-leaf stage Brassica rapa subsp. oleifera under greenhouse condition at 750 g /ha measured after 24 days by spray method; format: functional; details: 576 h, read-out: GI
Digitaria [7] = experiment: Post-emergence herbicidal activity against one-leaf stage of Digitaria adscendens under greenhouse condition at 750 g /ha measured after 24 days by spray method; format: functional; details: in Digitaria adscendens, 576 h, read-out: GI
[8] = system: Brassica rapa subsp. oleifera; experiment: Post-emergence herbicidal activity against one-leaf stage Brassica rapa subsp. oleifera under greenhouse condition at 150 g /ha measured after 24 days by spray method; format: functional; details: 576 h, read-out: GI
Spirodela polyrhiza [9] = experiment: Bleaching herbicidal activity in Spirodela polyrhiza fronds cultured in compound-containing in medium assessed as chlorophyll inhibition at 10 ug/ml after 7 days; format: functional; details: 168 h
Amaranthus retroflexus [10] = experiment: Pre-emergence herbicidal activity against Amaranthus retroflexus under greenhouse condition at 750 g /ha measured after 24 days by spray method; format: functional; details: 576 h, read-out: GI
[11] = system: Brassica rapa subsp. oleifera; experiment: Pre-emergence herbicidal activity against Brassica rapa subsp. oleifera under greenhouse condition at 750 g /ha measured after 24 days by spray method; format: functional; details: 576 h, read-out: GI
[12] = system: Brassica rapa subsp. oleifera; experiment: Post-emergence herbicidal activity against one-leaf stage Brassica rapa subsp. oleifera under greenhouse condition assessed as complete bleaching of leaves at 600 g /ha measured after 24 days by spray method; format: functional, organism-based
Echinochloa crus-galli [13] = experiment: Pre-emergence herbicidal activity against Echinochloa crus-galli (barnyard grass) under greenhouse condition at 750 g /ha measured after 24 days by spray method; format: functional; details: 576 h, read-out: GI
[14] = system: Brassica rapa subsp. oleifera; experiment: Post-emergence herbicidal activity against one-leaf stage Brassica rapa subsp. oleifera under greenhouse condition at 600 g /ha measured after 24 days by spray method; format: functional; details: 576 h, read-out: GI
Spirodela polyrhiza [15] = experiment: Bleaching herbicidal activity in Spirodela polyrhiza fronds cultured in compound-containing in medium assessed as chlorophyll inhibition at 1 ug/ml after 7 days; format: functional; details: 168 h
Amaranthus retroflexus [16] = experiment: Post-emergence herbicidal activity against one-leaf stage of Amaranthus retroflexus under greenhouse condition at 750 g /ha measured after 24 days by spray method; format: functional; details: 576 h, read-out: GI

Structure (SMILES)	inhibition of growth at 750 g/ha (Digitaria [1]) [%]	inhibition of growth at 750 g/ha (Echinochloa crus-galli [2]) [%]	inhibition of growth at 300 g/ha [3] [%]	Activity [4]	Activity [5]	inhibition of growth at 750 g/ha [6] [%]	inhibition of growth at 750 g/ha (Digitaria [7]) [%]	inhibition of growth at 150 g/ha [8] [%]	inhibition at 10 µg/mL (Spirodela polyrhiza [9]) [%]	inhibition of growth at 750 g/ha (Amaranthus retroflexus [10]) [%]	inhibition of growth at 750 g/ha [11] [%]	Activity [12]	inhibition of growth at 750 g/ha (Echinochloa crus-galli [13]) [%]	inhibition of growth at 600 g/ha [14] [%]	inhibition at 1 µg/mL (Spirodela polyrhiza [15]) [%]	inhibition of growth at 750 g/ha (Amaranthus retroflexus [16]) [%]
Cc1cc(-c2cccc(C(F)(F)F)c2)c(OCc2cccc(F)c2)nn1	10	14	47	Active	Active	93	0	30	96	9	0	Active	18	66	89	47
Cc1cc(-c2cccc(C(F)(F)F)c2)c(OCc2ccccc2)nn1	7	29	86	Active	Active	94	0	62	82	38	55	Active	27	92	62	50
Cc1cc(-c2cccc(C(F)(F)F)c2)c(OCc2ccccc2Br)nn1	25	0	73	Active	Active	91	3	49	100	21	8	Active	1	85	93	54
Cc1cc(-c2cccc(C(F)(F)F)c2)c(OCc2ccc(Cl)cc2Cl)nn1	0	0				43	0		44	3	2		18		38	35
Cc1cc(-c2cccc(C(F)(F)F)c2)c(Oc2cccc(Cl)c2)nn1	7	57				100	74		72	0	11		6		72	63
Cc1cc(-c2cccc(C(F)(F)F)c2)c(OCc2cccc(Cl)c2)nn1	2	0				33	0		45	18	0		36		29	31
Cc1cc(-c2cccc(C(F)(F)F)c2)c(OCc2cccc(Br)c2)nn1	0	4				65	3		83	0	0		7		66	39
Cc1cc(-c2cccc(C(F)(F)F)c2)c(OCc2ccc(N(C)C)cc2)nn1	6	0				7	11		97	11	4		17		64	21
COc1ccc(COc2nnc(C)cc2-c2cccc(C(F)(F)F)c2)cc1	48	0				13	20		72	0	0		39		0	16
Cc1cc(C)cc(Oc2nnc(C)cc2-c2cccc(C(F)(F)F)c2)c1	11	6				56	0		63	10	0		10		42	8
Cc1cc(-c2cccc(C(F)(F)F)c2)c(Oc2ccccc2C(F)(F)F)nn1	0	12				46	0		37	0	10		11		32	3
COc1cccc(COc2nnc(C)cc2-c2cccc(C(F)(F)F)c2)c1	0	5				9	0		23	0	0		20		5	12
Cc1cc(C)cc(COc2nnc(C)cc2-c2cccc(C(F)(F)F)c2)c1	0	11				36	24		71	2	0		1		0	10
Cc1cc(-c2cccc(C(F)(F)F)c2)c(OCc2c(Cl)cccc2Cl)nn1	41	4				20	0		26	15	2		1		4	34
Cc1cc(-c2cccc(C(F)(F)F)c2)c(Oc2ccccc2-c2ccccc2)nn1	0	0				0	0		33	18	0		0		29	25
Cc1cc(-c2cccc(C(F)(F)F)c2)c(Oc2ccccc2Br)nn1	7	30				34	21		78	0	0		0		0	0
Cc1cc(-c2cccc(C(F)(F)F)c2)c(OCc2ccc(Br)cc2)nn1	0	15				20	0		27	0	0		4		14	23
Cc1ccc(COc2nnc(C)cc2-c2cccc(C(F)(F)F)c2)cc1	4	6				41	0		31	9	0		28		20	22
Cc1cc(-c2cccc(C(F)(F)F)c2)c(Oc2ccc(C(C)(C)C)cc2)nn1	4	33				44	0		35	0	1		0		0	38
